Experimental data published in article PMC6161602, “Synthesis and characterisation of (Z)-styrylbenzene derivatives as potential selective anticancer agents” (Journal of Enzyme Inhibition and Medicinal Chemistry, 2018).

Legend:
Type in all cases: cell-based, human
[1] = tested on: cyclin D1; assay: Western blotting, cyclin D1; details: BEL-7402, 12 h, immunoblot, dose-dependent
Protocol: (§1) BEL-7402 cells were harvested in logarithmic growth phase and the adherent and floating cells were collected after 12 h of drug treatment. The collected cells were resuspended in cold RIPA buffer (100 mM NaCl, 100 mM Tris (pH7.4), 10% Triton X-100, 1 mM PMSF, pH7.5) with 0.1 µM leupetin protease inhibitor as well as 1 µg/mL pepstatin and cracked on ice for 30 min. Then according to the reference to did immunoblotting assay.

[2] = tested on: A549 lung cancer cell; assay: MTT cell growth inhibition assay, A549
Outline: (§2)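 Absorbance at 492 nm of DMSO-dissolved formazan served as read-out after a 4 h MTT pulse (2 mg/mL final). Beforehand, adhered cells were treated for 48 h with four concentrations, 1 to 100 µM.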

[3] = tested on: BEL-7402 cells; assay: MTT cell growth inhibition assay, BEL-7402; details: Homo sapiens; MTT, 48 h incubation, Bel-7402
Outline: as §2

[4] = tested on: BEL-7402 cells; assay: Analysis for cell cycle by flow cytometry; details: BEL-7402, 12 h incubation, concentration-dependent increase from-to (0.01, 0.05, 0.1 µM)
Protocol: BEL-7402 cells were plated 6-well plates with 5.0 × 10^5 cells/well for overnight (O/N) and were synchronised at the G0 phase by serum starvation (0.1% FBS in RPMI-1640) for 24 h. Then the cells were incubated with 0.01, 0.05, 0.1 µM of 6h and 0.1 μM of taxol, respectively. Vehicle group was treated with 0.1% DMSO. Following 12 h of incubation, the cells were detached with 0.05% trypsin/5 mM EDTA and centrifuged at 1000 rpm for 10 min, and fixed in 70% ethanol at −20 °C for O/N. Then, the cells were subsequently analysed the cell cycle distribution by flow cytometry using a FACSCalibur flow cytometer with Cell Quest software (Becton-Dickinson, Franklin Lakes, NJ, USA), plotting at least 30,000 events per sample[22]. The percentage of cells in the G0/G1, S, and G2/M phases of the cell cycle were determined using the ModFit LT version 4.0 software package (Verity Software, Topsham, ME, USA).

[5] = tested on: cyclin B1; assay: Western blotting, cyclin B1; details: BEL-7402, 12 h, immunoblot
Protocol: as §1

[6] = tested on: HCT116 cells; assay: MTT cell growth inhibition assay, HCT116
Outline: as §2

[7] = tested on: MCF-7 breast cancer cell; assay: MTT cell growth inhibition assay, MCF-7
Outline: as §2

COc1cc(/C(C#N)=C/c2ccc(C)cc2)cc(OC)c1OC [Compound 6h, (Z)-3-(p-Tolyl)-2-(3,4,5-trimethoxyphenyl)acrylonitrile]
expression of cyclin D1 compared with the vehicle group [1]: lower expression | IC50 ([2]; Homo sapiens, MTT, 48 h incubation, A549): 530 ± 23 nM | SI IC50 (L-02/A549) ([2]; selectivity index, IC50 (L-02)/IC50 (A549)): >188.6 | IC50 [3]: 150 ± 30 nM | percentage of S cell population [4]: 4.44–19.35% | expression of cyclin B1 compared with vehicle or 0.1 µM of taxol [5]: increased expression | IC50 ([6]; Homo sapiens, HCT-116, MTT, 48 h incubation, HCT116): 610 ± 160 nM | SI IC50 (L-02/HCT116) ([6]; selectivity index, IC50 (L-02)/IC50 (HCT116)): >163.9 | IC50 ([7]; Homo sapiens, MCF7, MTT, 48 h incubation, MCF-7): 2610 ± 980 nM | SI IC50 (MCF-10A/MCF-7) ([7]; selectivity index, IC50 (MCF-10A)/IC50 (MCF-7)): >3.6
